Data set [1] can be described thus: Bioavailability (PK) of solid state forms of Compound 1 in rat, oral dosing compared to IV solution. To be noted: in vivo. How it is done: Bioavailability of crystalline Form B, 85% amorphous Compound 1 and HPMCAS solid dispersion of Compound 1 were evaluated in rat, the results of which are provided in Table 4 below. These forms of the compound were dosed in an oral suspension with a vehicle containing 0.5% methyl cellulose/0.5% SLS/99% water. Bioavailability of various solid forms was evaluated as compared to a multicomponent IV solution of Compound 1. Bioavailability of crystalline […] was 3-6%, compared to 61-95% for amorphous material and 109-111% for solid dispersion.

Another data set in a line: Solubility in FaSSIF. In kind it is physicochemical.

≈ marks a conversion by molar mass, not a printed value.

For the molecule `CC(C)(C)c1cc(C(C)(C)C)c(NC(=O)c2c[nH]c3ccccc3c2=O)cc1O` [Crystalline, N-[2,4-bis(1,1-dimethylethyl)-5-hydroxyphenyl]-1,4-dihydro-4-oxoquinoline-3-carboxamide], the bioavailability (as a rule, the share of a dose that reaches the circulation, judged against a reference dose that is usually intravenous) in data set [1] (50 mg/kg, % F) was determined as 74%; in data set [1] (200 mg/kg, % F), 67%. In addition, the “% F” value turned out to be 5.5% in data set [1] (po, 50 mg/kg) and 3.1% in data set [1] (po, 200 mg/kg). Also, the Tmax (usually the time from dosing to the highest level) in data set [1] (po, 50 mg/kg) turned out to be 4.0 h; in data set [1] (po, 50 mg/kg, Tmax) it was 5.5 h. Further, the solubility (commonly the dissolved amount per volume that the medium holds) in “Solubility in FaSSIF” (listed as crystalline polymorph B) was determined as 1.0 µg/mL (≈ 2.55 µM).
Regarding `CC(C)(C)c1cc(C(C)(C)C)c(NC(=O)c2c[nH]c3ccccc3c2=O)cc1O` [85% Amorphous, N-[2,4-bis(1,1-dimethylethyl)-5-hydroxyphenyl]-1,4-dihydro-4-oxoquinoline-3-carboxamide], in data set [1] (po), the bioavailability was 61-95%. For the same molecule, in data set [1] (po, 50 mg/kg), the “% F” value amounted to 95.0%; the AUC – broadly, the area under the concentration-time curve, a measure of exposure – worked out at 135.5 µg·h/mL; the Tmax was 6.0 h. In data set [1] (po, 200 mg/kg), the “% F” value came out at 61.0%, the AUC stood at 371.9 µg·h/mL and the Tmax turned out to be 6.0 h. In addition, the solubility in the data set “Solubility in FaSSIF” (listed as 85% amorphous material) worked out at 67.4 µg/mL (≈ 172 µM).

The record behind these values is patent publication US10537565B2, “Solid forms of N-[2,4-bis(1,1-dimethylethyl)-5-hydroxyphenyl]-1,4-dihydro-4-oxoquinoline-3-carboxamide” (Vertex Pharmaceuticals Incorporated, priority 2005, dated 2020).
